Test results published in PMC6979384, “Characterization of the plant homeodomain (PHD) reader family for their histone tail interactions” (Epigenetics & Chromatin, 2020).

What was measured:
Assay in all cases: Histone peptide microarray
Assay type in all cases: binding, human
AIRE (PP) = details: each array performed twice, total n = 4; for Array Heatmap signal (histone peptide microarray): GST-tagged AIRE (PP), sheet Array Heatmap
Outline: (§1)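 Purified PHD finger domains fused to GST are screened against 293 synthetic histone peptides bearing one or several post-translational modifications. The protein is used at 0.5 μM, and the signal from four replicate arrays is averaged, with standard deviation given.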

KDM5A (3) = details: each array performed twice, total n = 4; for Array Heatmap signal (histone peptide microarray): GST-tagged KDM5A (3), sheet Array Heatmap
Outline: as §1

ING4 = details: each array performed twice, total n = 4; for Array Heatmap signal (histone peptide microarray): GST-tagged ING4, sheet Array Heatmap
Outline: as §1

PHF2 = details: each array performed twice, total n = 4; for Array Heatmap signal (histone peptide microarray): GST-tagged PHF2, sheet Array Heatmap
Outline: as §1

MLL5 = details: each array performed twice, total n = 4; for Array Heatmap signal (histone peptide microarray): GST-tagged MLL5, sheet Array Heatmap
Outline: as §1

KDM5A (1) = details: each array performed twice, total n = 4; for Array Heatmap signal (histone peptide microarray): GST-tagged KDM5A (1), sheet Array Heatmap
Outline: as §1

DIDO1 = details: each array performed twice, total n = 4; for Array Heatmap signal (histone peptide microarray): GST-tagged DIDO1, sheet Array Heatmap
Outline: as §1

BPTF (PB) = details: each array performed twice, total n = 4; for Array Heatmap signal (histone peptide microarray): GST-tagged BPTF (PB = PHD + Bromodomain), sheet Array Heatmap
Outline: as §1

CHD5 (PCC) = details: each array performed twice, total n = 4; for Array Heatmap signal (histone peptide microarray): GST-tagged CHD5 (PCC = PHD + Dual Chromodomain), sheet Array Heatmap
Outline: as §1

PHF8 = details: each array performed twice, total n = 4; for Array Heatmap signal (histone peptide microarray): GST-tagged PHF8, sheet Array Heatmap
Outline: as §1

PHF21A = details: each array performed twice, total n = 4; for Array Heatmap signal (histone peptide microarray): GST-tagged PHF21A, sheet Array Heatmap
Outline: as §1

TAF3 = details: each array performed twice, total n = 4; for Array Heatmap signal (histone peptide microarray): GST-tagged TAF3, sheet Array Heatmap
Outline: as §1

ING2 = details: each array performed twice, total n = 4; for Array Heatmap signal (histone peptide microarray): GST-tagged ING2, sheet Array Heatmap
Outline: as §1

KDM7A = details: each array performed twice, total n = 4; for Array Heatmap signal (histone peptide microarray): GST-tagged KDM7A, sheet Array Heatmap
Outline: as §1

CHD4 (PPCC) = details: each array performed twice, total n = 4; for Array Heatmap signal (histone peptide microarray): GST-tagged CHD4 (PPCC = Dual PHD + Dual Chromodomain), sheet Array Heatmap
Outline: as §1

TRIM66 (PB) = details: each array performed twice, total n = 4; for Array Heatmap signal (histone peptide microarray): GST-tagged TRIM66 (PB = PHD + Bromodomain), sheet Array Heatmap
Outline: as §1

PHF13 = details: each array performed twice, total n = 4; for Array Heatmap signal (histone peptide microarray): GST-tagged PHF13, sheet Array Heatmap
Outline: as §1

KDM5B (3) = details: each array performed twice, total n = 4; for Array Heatmap signal (histone peptide microarray): GST-tagged KDM5B (3), sheet Array Heatmap
Outline: as §1

ING5 = details: each array performed twice, total n = 4; for Array Heatmap signal (histone peptide microarray): GST-tagged ING5, sheet Array Heatmap
Outline: as §1

BAZ2B = details: each array performed twice, total n = 4; for Array Heatmap signal (histone peptide microarray): GST-tagged BAZ2B, sheet Array Heatmap
Outline: as §1

RAG2 = details: each array performed twice, total n = 4; for Array Heatmap signal (histone peptide microarray): GST-tagged RAG2, sheet Array Heatmap
Outline: as §1

PHRF1 (RP) = details: each array performed twice, total n = 4; for Array Heatmap signal (histone peptide microarray): GST-tagged PHRF1 (RP), sheet Array Heatmap
Outline: as §1

KDM5B (1) = details: each array performed twice, total n = 4; for Array Heatmap signal (histone peptide microarray): GST-tagged KDM5B (1), sheet Array Heatmap
Outline: as §1

PHF23 = details: each array performed twice, total n = 4; for Array Heatmap signal (histone peptide microarray): GST-tagged PHF23, sheet Array Heatmap
Outline: as §1

KDM4C (TTP) = details: each array performed twice, total n = 4; for Array Heatmap signal (histone peptide microarray): GST-tagged KDM4C (TTP = Tandem Tudor domain + PHD), sheet Array Heatmap
Outline: as §1

ING1 = details: each array performed twice, total n = 4; for Array Heatmap signal (histone peptide microarray): GST-tagged ING1, sheet Array Heatmap
Outline: as §1

CHD5 (PPCC) = details: each array performed twice, total n = 4; for Array Heatmap signal (histone peptide microarray): GST-tagged CHD5 (PPCC = Dual PHD + Dual Chromodomain), sheet Array Heatmap
Outline: as §1

MORC3 (CW) = details: each array performed twice, total n = 4; for Array Heatmap signal (histone peptide microarray): GST-tagged MORC3 (CW = CW-type Zn-finger), sheet Array Heatmap
Outline: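 A peptide microarray holding 293 synthetic histone peptides with individual or combinatorial modifications was probed with each GST-PHD protein at 0.5 μM. Values represent mean intensity (±SD) from four replicates.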

ING3 = details: each array performed twice, total n = 4; for Array Heatmap signal (histone peptide microarray): GST-tagged ING3, sheet Array Heatmap
Outline: as §1

DPF2 (PPC2W2) = details: each array performed twice, total n = 4; for Array Heatmap signal (histone peptide microarray): GST-tagged DPF2 (PPC2W2 = Dual PHD + C2W2-type Zn-finger), sheet Array Heatmap
Outline: as §1

SP140L = details: each array performed twice, total n = 4; for Array Heatmap signal (histone peptide microarray): GST-tagged SP140L, sheet Array Heatmap
Outline: as §1

Substance: H3K4me3 (1-11): H3 1-11
- Array Heatmap value (peptide array signal) (AIRE (PP); AIRE (PP), sheet "Array Heatmap"): 0.5119
- Array Heatmap value (peptide array signal) (KDM5A (3); KDM5A (3), sheet "Array Heatmap"): 0.6017
- Array Heatmap value (peptide array signal) (ING4; ING4, sheet "Array Heatmap"): 0.465
- Array Heatmap value (peptide array signal) (PHF2; PHF2, sheet "Array Heatmap"): 0.5693
- Array Heatmap value (peptide array signal) (MLL5; MLL5, sheet "Array Heatmap"): 0.6217
- Array Heatmap value (peptide array signal) (KDM5A (1); KDM5A (1), sheet "Array Heatmap"): 0.5087
- Array Heatmap value (peptide array signal) (DIDO1; DIDO1, sheet "Array Heatmap"): 0.7285
- Array Heatmap value (peptide array signal) (BPTF (PB); BPTF (PB), sheet "Array Heatmap"): 0.3697
- Array Heatmap value (peptide array signal) (CHD5 (PCC); CHD5 (PCC), sheet "Array Heatmap"): 0.8101
- Array Heatmap value (peptide array signal) (PHF8; PHF8, sheet "Array Heatmap"): 0.4899
- Array Heatmap value (peptide array signal) (PHF21A; PHF21A, sheet "Array Heatmap"): 0.5172
- Array Heatmap value (peptide array signal) (TAF3; TAF3, sheet "Array Heatmap"): 0.3193
- Array Heatmap value (peptide array signal) (ING2; ING2, sheet "Array Heatmap"): 0.6411
- Array Heatmap value (peptide array signal) (KDM7A; KDM7A, sheet "Array Heatmap"): 0.4006
- Array Heatmap value (peptide array signal) (CHD4 (PPCC); CHD4 (PPCC), sheet "Array Heatmap"): 0.5943
- Array Heatmap value (peptide array signal) (TRIM66 (PB); TRIM66 (PB), sheet "Array Heatmap"): 0.5622
- Array Heatmap value (peptide array signal) (PHF13; PHF13, sheet "Array Heatmap"): 0.6221
- Array Heatmap value (peptide array signal) (KDM5B (3); KDM5B (3), sheet "Array Heatmap"): 0.5281
- Array Heatmap value (peptide array signal) (ING5; ING5, sheet "Array Heatmap"): 0.3839
- Array Heatmap value (peptide array signal) (BAZ2B; BAZ2B, sheet "Array Heatmap"): 0.4805
- Array Heatmap value (peptide array signal) (RAG2; RAG2, sheet "Array Heatmap"): 0.3044
- Array Heatmap value (peptide array signal) (PHRF1 (RP); PHRF1 (RP), sheet "Array Heatmap"): 0.4768
- Array Heatmap value (peptide array signal) (KDM5B (1); KDM5B (1), sheet "Array Heatmap"): 0.6584
- Array Heatmap value (peptide array signal) (PHF23; PHF23, sheet "Array Heatmap"): 0.5829
- Array Heatmap value (peptide array signal) (KDM4C (TTP); KDM4C (TTP), sheet "Array Heatmap"): 0.5306
- Array Heatmap value (peptide array signal) (ING1; ING1, sheet "Array Heatmap"): 0.5841
- Array Heatmap value (peptide array signal) (CHD5 (PPCC); CHD5 (PPCC), sheet "Array Heatmap"): 0.5701
- Array Heatmap value (peptide array signal) (MORC3 (CW); MORC3 (CW), sheet "Array Heatmap"): 0.5155
- Array Heatmap value (peptide array signal) (ING3; ING3, sheet "Array Heatmap"): 0.5106
- Array Heatmap value (peptide array signal) (DPF2 (PPC2W2); DPF2 (PPC2W2), sheet "Array Heatmap"): 0.6949
- Array Heatmap value (peptide array signal) (SP140L; SP140L, sheet "Array Heatmap"): 0.3833

Substance: H3K4me3 + K9ac + K14ac + K18ac: H3 1-20
- Array Heatmap signal (histone peptide microarray) (AIRE (PP)): 0.4865
- Array Heatmap signal (histone peptide microarray) (KDM5A (3)): 0.9909
- Array Heatmap signal (histone peptide microarray) (ING4): 0.625
- Array Heatmap signal (histone peptide microarray) (PHF2): 0.7873
- Array Heatmap signal (histone peptide microarray) (MLL5): 0.936
- Array Heatmap signal (histone peptide microarray) (KDM5A (1)): 0.4983
- Array Heatmap signal (histone peptide microarray) (DIDO1): 0.9126
- Array Heatmap signal (histone peptide microarray) (BPTF (PB)): 0.7619
- Array Heatmap signal (histone peptide microarray) (CHD5 (PCC)): 0.8618
- Array Heatmap signal (histone peptide microarray) (PHF8): 0.7502
- Array Heatmap signal (histone peptide microarray) (PHF21A): 0.4925
- Array Heatmap signal (histone peptide microarray) (TAF3): 0.6574
- Array Heatmap signal (histone peptide microarray) (ING2): 0.8772
- Array Heatmap signal (histone peptide microarray) (KDM7A): 0.5567
- Array Heatmap signal (histone peptide microarray) (CHD4 (PPCC)): 0.5745
- Array Heatmap signal (histone peptide microarray) (TRIM66 (PB)): 0.6004
- Array Heatmap signal (histone peptide microarray) (PHF13): 0.7829
- Array Heatmap signal (histone peptide microarray) (KDM5B (3)): 0.8339
- Array Heatmap signal (histone peptide microarray) (ING5): 0.4716
- Array Heatmap signal (histone peptide microarray) (BAZ2B): 0.6196
- Array Heatmap signal (histone peptide microarray) (RAG2): 0.8746
- Array Heatmap signal (histone peptide microarray) (PHRF1 (RP)): 0.5895
- Array Heatmap signal (histone peptide microarray) (KDM5B (1)): 0.7481
- Array Heatmap signal (histone peptide microarray) (PHF23): 0.8373
- Array Heatmap signal (histone peptide microarray) (KDM4C (TTP)): 0.6463
- Array Heatmap signal (histone peptide microarray) (ING1): 0.7787
- Array Heatmap signal (histone peptide microarray) (CHD5 (PPCC)): 0.5931
- Array Heatmap signal (histone peptide microarray) (MORC3 (CW)): 1
- Array Heatmap signal (histone peptide microarray) (ING3): 0.8559
- Array Heatmap signal (histone peptide microarray) (DPF2 (PPC2W2)): 0.7652
- Array Heatmap signal (histone peptide microarray) (SP140L): 0.3627

Substance: H3K4me3 + K9ac + K18ac: H3 1-20
- Array Heatmap signal (histone peptide microarray) (AIRE (PP)): 0.5297
- Array Heatmap signal (histone peptide microarray) (KDM5A (3)): 0.919
- Array Heatmap signal (histone peptide microarray) (ING4): 0.6909
- Array Heatmap signal (histone peptide microarray) (PHF2): 0.7127
- Array Heatmap signal (histone peptide microarray) (MLL5): 0.9085
- Array Heatmap signal (histone peptide microarray) (KDM5A (1)): 0.5009
- Array Heatmap signal (histone peptide microarray) (DIDO1): 0.9071
- Array Heatmap signal (histone peptide microarray) (BPTF (PB)): 0.7655
- Array Heatmap signal (histone peptide microarray) (CHD5 (PCC)): 0.8455
- Array Heatmap signal (histone peptide microarray) (PHF8): 1
- Array Heatmap signal (histone peptide microarray) (PHF21A): 0.4825
- Array Heatmap signal (histone peptide microarray) (TAF3): 0.7825
- Array Heatmap signal (histone peptide microarray) (ING2): 0.8776
- Array Heatmap signal (histone peptide microarray) (KDM7A): 1
- Array Heatmap signal (histone peptide microarray) (CHD4 (PPCC)): 0.5646
- Array Heatmap signal (histone peptide microarray) (TRIM66 (PB)): 0.7372
- Array Heatmap signal (histone peptide microarray) (PHF13): 0.8179
- Array Heatmap signal (histone peptide microarray) (KDM5B (3)): 0.9067
- Array Heatmap signal (histone peptide microarray) (ING5): 0.4905
- Array Heatmap signal (histone peptide microarray) (BAZ2B): 0.5371
- Array Heatmap signal (histone peptide microarray) (RAG2): 0.8902
- Array Heatmap signal (histone peptide microarray) (PHRF1 (RP)): 0.6174
- Array Heatmap signal (histone peptide microarray) (KDM5B (1)): 0.7108
- Array Heatmap signal (histone peptide microarray) (PHF23): 0.8424
- Array Heatmap signal (histone peptide microarray) (KDM4C (TTP)): 0.7748
- Array Heatmap signal (histone peptide microarray) (ING1): 0.8615
- Array Heatmap signal (histone peptide microarray) (CHD5 (PPCC)): 0.6046
- Array Heatmap signal (histone peptide microarray) (MORC3 (CW)): 0.8949
- Array Heatmap signal (histone peptide microarray) (ING3): 0.8253
- Array Heatmap signal (histone peptide microarray) (DPF2 (PPC2W2)): 0.728
- Array Heatmap signal (histone peptide microarray) (SP140L): 0.3543
